{"source": "patent US20020160961A1", "about": "“Compositions for the treatment of the catabolic state of prolonged critical illness” (priority 1999, published 2002)", "origin": "cited, not measured here", "tested_on": "pulsatile TSH secretion", "conditions": "TRH infused together with GHRP-2; catabolic state of prolonged critical illness"}
{"smiles": "NC(=O)[C@@H]1CCCN1C(=O)[C@H](Cc1cnc[nH]1)NC(=O)[C@@H]1CCC(=O)N1", "note": "[TRH, thyrotropin-releasing hormone]", "values": [{"measurement": "pulsatile TSH secretion", "value": "increased pulsatile TSH secretion"}]}
